Source: US20170368176A1 (priority 2014, published 2017)
Several values for one entry are separate records, joined by “and”; a condition that tells them apart may be missing. Identical values can stand only once. Entries after “also recorded” stand apart in the source; their conditions may differ. Counter-ions that a name gives are not always drawn. Like-named read-outs stand apart in the source and are kept apart here.

Legend:
rat cornea = test system: rat cornea; design: species or system Sprague-Dawley rats; conditions: in vivo
α2-AR = conditions: cited from earlier work
peripheral nerve = conditions: in vivo; cited from earlier work
[1] = test system: human corneal limbal epithelial (HCLE) cells
rats [2] = conditions: rat, in vivo
[3] = in vivo; cited from earlier work
rats [4] = conditions: rat, in vivo; cited from earlier work
[5] = in vivo; cited from earlier work; remark: listed apart in the source

SMILES: Clc1cccc(Cl)c1N=C1NCCN1 [CLON, clonidine hydrochloride]
- effect of the added agent on the duration of corneal block from TTX (in words) (rat cornea): failed to prolong corneal block
- selectivity for the α2-AR, times less selective than dexmedetomidine (α2-AR): 8 times
- effective concentrations in peripheral nerve (peripheral nerve): 10 µM

SMILES: Cc1cccc([C@H](C)c2cnc[nH]2)c1C [DMED, (S)-4-[1-(2,3-Dimethylphenyl)ethyl]-3H-imidazole]
- Block0.5 (duration without blink response to 0.5 cm filament) (rat cornea): 0 ± 0 min
- Block2 (duration without blink response to 2 cm filament) (rat cornea): 0 ± 0 min
- Block<6 (duration without blink response to any filament less than 6 cm) (rat cornea): 0 ± 0 min
- corneal anesthesia (in words) (rat cornea): did not produce any degree of corneal anesthesia
- effect of increasing doses of DMED on block (FIG. 4) (rat cornea): do not increase block further
- HCLE cell survival compared to cells not exposed to drug [1]: not reduced
- sedation, dose response of DMED (FIG. 4) (rats [2]): sedation results from the higher two doses
- half-life [3]: approximately 2 hours
- effective concentrations in peripheral nerve (peripheral nerve): 2.7 µM
- perineural doses that produce undesired sedation (rats [4]): above 6 μg/kg

SMILES: CCCOc1ccc(C(=O)OCCN(CC)CC)cc1N [PPC, Proparacaine hydrochloride]
- animals in which block0.5 occurred (rat cornea): all animals
- Block0.5 (duration without blink response to 0.5 cm filament) (rat cornea; hydrochloride): 18 ± 6 min
- Block2 (duration without blink response to 2 cm filament) (rat cornea; hydrochloride): 35 min and 35 ± 10 min
- Block<6 (duration without blink response to any filament less than 6 cm) (rat cornea; hydrochloride): 54 min and 54 ± 8 min

SMILES: CC[N+](CC)(CC)CC(=O)Nc1c(C)cccc1C.[Br-] [QX-314]
- duration of local anesthesia [5]: approximately 24 h

SMILES: N=C1N[C@@H](O)[C@H]2[C@@H]3OC4(O)OC(C(O)[C@@]2(N1)[C@@H]4O)[C@]3(O)CO (stereo partly drawn) [TTX, Tetrodotoxin]
- Block0.5 duration of corneal block (rat cornea): 12 ± 12.5 min
- Block2 duration of corneal block (rat cornea): 39 ± 22.7 min
- Block < 6 duration of corneal block (rat cornea): 117 ± 19.5 min
- animals in which block0.5 of any duration occurred (rat cornea): 5 of 14
- block<6 durations compared with 15 mM proparacaine (rat cornea): comparable to those from 15 mM proparacaine

SMILES: CCN(c1ccccc1)c1cc(NC)[n+](C)c(C)n1.[Cl-] [ZD7288, 4-(N-Ethyl-N-phenylamino)-1,2 dimethyl-6-(methylamino) pyrimidinium chloride]
- effect of the added agent on the duration of corneal block from TTX (in words) (rat cornea): prolongs the duration of corneal block from TTX

SMILES: CNC[C@H](O)c1ccc(O)c(O)c1 [epinephrine]
- effect of the added agent on the duration of corneal block from TTX (in words) (rat cornea): failed to prolong corneal block

SMILES: CNC[C@H](O)c1cccc(O)c1 [phenylephrine]
- effect of the added agent on the duration of corneal block from TTX (in words) (rat cornea): at low concentrations (but not high concentrations) prolonged the duration of corneal block from TTX; also recorded: greatly prolonged the duration of corneal block by TTX

SMILES: COc1cc2nc(N3CCN(C(=O)c4ccco4)CC3)nc(N)c2cc1OC [prazosin]
- effect of the added agent on the duration of corneal block from TTX (in words) (rat cornea): did not shorten the duration of corneal block from TTX
